Values quoted from earlier work as cited in patent US20090306049A1, “Treatment of Barrett's Esophagus” (HUBRECHT LABORATORIUM, priority 2005, published 2009).

Test system: Barrett's carcinoma

## O=P1(NCCCl)OCCCN1CCCl (stereo not shown) [ifosfamide]
25 patients treated
  overall efficacy of treatment: essentially ineffective
  patients cured of metastatic adenocarcinoma in Barrett's oesophagus: One
  patients with a partial response: one
Generally considered
  toxicity associated with treatment: severe toxicity
